The test has as its system endogenous tau in dSH-SY5Y cells. Put plainly: Western blot of whole lysate and Triton X-100 sequential extraction of endogenous tau. Format: cell-based, human. The settings on record: 24 h. The method, then:
Cells were detached from the coverslip by incubation in 0.25% trypsin-EDTA (Gibco™) and then mixed with 5 ml culture media. The cells were harvested by centrifugation at 500×g for 5 minutes and the supernatant was discarded. The cell pellet was resuspended in ice-cold PBS and centrifuged at 500×g at 4° C. Cells were lysed in 1% Triton lysis buffer (1% Triton X-100 (v/v), 150 mM NaCl and 50 mM Tris-HCl, pH 7.6) containing Halt™ protease inhibitors (Thermo Scientific) and phosphatase inhibitors (Thermo Scientific) for 15 minutes on ice. The samples were centrifuged at 16,000×g for 30 minutes at 4° C., and the supernatant was collected (Triton-soluble fraction). The pellet was resuspended in SDS lysis buffer (1% SDS (w/v), 150 mM NaCl and 50 mM Tris-HCl, pH 7.6) containing protease and phosphatase inhibitors. The samples were centrifuged at 16,000×g for 30 minutes at room temperature and the supernatant was collected (Triton-insoluble fraction). Protein concentration in the Triton-soluble fractions were determined using the Pierce™ BCA Protein Assay Kit (Thermo Scientific) according to the manufacturer's instructions.
For cell lysates, Triton-soluble protein (20 μg) and an equal volume of Triton-insoluble protein were each mixed with Læmmli sample buffer (4×) (Bio-Rad Laboratories) containing 5% (v/v) […] and heated at 95° C. for 5 minutes. For recombinant protein, 3 μg was mixed with sample buffer without reducing agent or boiling. All samples were centrifuged for five minutes at 1000×g and samples were loaded onto 4-20% Mini-PROTEAN® precast gels (Bio-Rad Laboratories) and run at 120 V for 1 h in Tris-glycine running buffer (25 mM Tris, 192 mM glycine, pH 8.3), or until the sample buffer reached the end of the gel. For Coomassie staining, the gel was washed three times in double distilled water for five minutes and stained with Imperial™ protein stain (Thermo Scientific) for 1 h and then destained overnight in double distilled water. The stained gel was scanned using an HP Photosmart C5280 scanner. For western blotting, the separated proteins on the gel were transferred to nitrocellulose membrane (0.45 μm) at 200 mA for 90 minutes. The membranes were blocked in 5% (w/v) bovine serum albumin (BSA) in Tris-buffered saline (50 mM Tris-HCl, pH7.4, 150 mM NaCl) containing 0.1% (v/v) Tween-20 (TBS-T) for 1 h rocking at room temperature. Membranes were incubated with primary antibodies diluted in 5% BSA in TBS-T overnight at 4° C. The following primary antibodies and dilutions were used; Anti-Tau (polyclonal, total tau) (Thermo Scientific) (1:2500), AT180 (anti-pT231) (Thermo Scientific) (1:1000), AT8 (anti-pS202-T205) (1:1000) (Thermo Scientific), anti-GAPDH (1:5000) (Abcam). […] Immunoreactive protein bands were detected using ECL substrate (Clarity™, Bio-Rad) and X-ray films were scanned using an HP Photosmart C5280 scanner. FIJI was used to quantify the bands in arbitrary densitometry units. The density of bands corresponding to full-length tau (50-70 kDa) were determined and normalised against amount of GAPDH. […] For the quantification of Triton-insoluble and soluble protein, the proportion of tau in the insoluble and soluble fraction was calculated using the equations insoluble/(soluble+insoluble) or soluble/(soluble+insoluble), respectively and expressed as a percentage of the respective soluble or insoluble control value. […]
(In western blotting, separated proteins are transferred to a membrane and probed.)

Where [1] appears, read: whole lysate (RIPA), 1 μM soluble dGAE.

From patent US20230266303A1, “SYSTEM” (GTINVENT LIMITED, priority 2020, published 2023) come the findings set out here.

Values joined by “and” are separate entries in the source; they are usually repeats but may differ in a detail not shown here. Identical values can stand only once. “Also recorded” adds a separate entry of the source.

For the substance “dGAE: recombinant truncated tau, 95 residues fragment of Tau (2N4R), Ile-297 to Glu-391, SEQ ID NO: 4”, for the setting “soluble dGAE, buffer 100±0”, the “proportion of AT180 tau in Triton-X 100 insoluble fraction, percentage of buffer-treated controls” value is 139.4±14.54% and 139.4±14.5%; the “proportion of AT180 tau in Triton-X 100 soluble fraction, percentage of buffer-treated controls” value was 82.98±5.48% and 83.0±5.5%. Also, under setting [1], the “AT8 immunoreactivity vs buffer-treated control (western blot)” value is given as “no significant difference; also recorded: marginal increases”, the “AT180 immunoreactivity vs buffer-treated control (western blot)” value is reported as “no significant difference; also recorded: marginal increases” and the “total tau immunoreactivity vs buffer-treated control (western blot)” value was “no significant difference; also recorded: no change”.
